# Results reported in PubChem BioAssay AID2060612 (Molecular Pharmacology Branch, DTP, NCI, 2025).
# Tested on: 565232-114-T-J1-PDC complex spheroid viability
# Assay: Anticancer human tumor 565232-114-T-J1-PDC patient-derived bladder carcinoma cell line growth inhibition [CLK]
# Settings: for viability, T/C: stronger effect = lower value
# How it was run: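 Patient-derived tumor cells grown as complex spheroids with HUVEC endothelial cells and mesenchymal stem cells, treated with drug combinations. Concentrations descend in half-log steps from near clinical Cmax, or from 10 microM if Cmax unknown.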
# [1] = curve of first compound, second compound 0.0316 µM
# [2] = curve of first compound, second compound 0.1 µM
# [3] = curve of first compound, second compound 0.316 µM
# [4] = curve of first compound, second compound 1 µM
# [5] = curve of first compound, second compound 3.16 µM
# [6] = curve of first compound, second compound 10 µM
# [7] = second compound 0.0316 µM, first compound 0.0316 µM
# [8] = second compound 0.0316 µM, first compound 0.1 µM
# [9] = second compound 0.0316 µM, first compound 0.316 µM
# [10] = second compound 0.0316 µM, first compound 1 µM
# [11] = second compound 0.0316 µM, first compound 3.16 µM
# [12] = second compound 0.0316 µM, first compound 10 µM
# [13] = second compound 0.1 µM, first compound 0.0316 µM
# [14] = second compound 0.1 µM, first compound 0.1 µM
# [15] = second compound 0.1 µM, first compound 0.316 µM
# [16] = second compound 0.1 µM, first compound 1 µM
# [17] = second compound 0.1 µM, first compound 3.16 µM
# [18] = second compound 0.1 µM, first compound 10 µM
# [19] = second compound 0.316 µM, first compound 0.0316 µM
# [20] = second compound 0.316 µM, first compound 0.1 µM
# [21] = second compound 0.316 µM, first compound 0.316 µM
# [22] = second compound 0.316 µM, first compound 1 µM
# [23] = second compound 0.316 µM, first compound 3.16 µM
# [24] = second compound 0.316 µM, first compound 10 µM
# [25] = second compound 1 µM, first compound 0.0316 µM
# [26] = second compound 1 µM, first compound 0.1 µM
# [27] = second compound 1 µM, first compound 0.316 µM
# [28] = second compound 1 µM, first compound 1 µM
# [29] = second compound 1 µM, first compound 3.16 µM
# [30] = second compound 1 µM, first compound 10 µM
# [31] = second compound 3.16 µM, first compound 0.0316 µM
# [32] = second compound 3.16 µM, first compound 0.1 µM
# [33] = second compound 3.16 µM, first compound 0.316 µM
# [34] = second compound 3.16 µM, first compound 1 µM
# [35] = second compound 3.16 µM, first compound 3.16 µM
# [36] = second compound 3.16 µM, first compound 10 µM
# [37] = second compound 10 µM, first compound 0.0316 µM
# [38] = second compound 10 µM, first compound 0.1 µM
# [39] = second compound 10 µM, first compound 0.316 µM
# [40] = second compound 10 µM, first compound 1 µM
# [41] = second compound 10 µM, first compound 3.16 µM
# [42] = second compound 10 µM, first compound 10 µM
# 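Note: spheroids exposed to compounds for 7 days before readout.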
# 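Throughout, for viability, T/C: 100% = DMSO vehicle wells with luminescence normalized to vehicle control.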
smiles,measurement,setting,value
CC1(C)CCC(CN2CCN(c3ccc(C(=O)NS(=O)(=O)c4ccc(NCC5CCOCC5)c([N+](=O)[O-])c4)c(Oc4cnc5[nH]ccc5c4)c3)CC2)=C(c2ccc(Cl)cc2)C1 + CNC(=O)c1ccc(Nc2nc(OC3CCCC3)c3c(-c4ccc5nc(C)oc5c4)c[nH]c3n2)c(OC)c1,IC50,[1],8790 nM
same,IC50,[2],2340 nM
same,IC50,[3],< 31.6 nM
same,IC50,[4],< 31.6 nM
same,IC50,[5],< 31.6 nM
same,IC50,[6],< 31.6 nM
same,"viability, T/C",[7],82.7%
same,"viability, T/C",[8],93.9%
same,"viability, T/C",[9],95.7%
same,"viability, T/C",[10],95.2%
same,"viability, T/C",[11],92.7%
same,"viability, T/C",[12],44.7%
same,"viability, T/C",[13],60.2%
same,"viability, T/C",[14],55.1%
same,"viability, T/C",[15],52.6%
same,"viability, T/C",[16],53.6%
same,"viability, T/C",[17],49.4%
same,"viability, T/C",[18],30.5%
same,"viability, T/C",[19],37.3%
same,"viability, T/C",[20],38.1%
same,"viability, T/C",[21],39.3%
same,"viability, T/C",[22],33.5%
same,"viability, T/C",[23],32.7%
same,"viability, T/C",[24],23.7%
same,"viability, T/C",[25],21.2%
same,"viability, T/C",[26],23.3%
same,"viability, T/C",[27],25.4%
same,"viability, T/C",[28],26.6%
same,"viability, T/C",[29],28.7%
same,"viability, T/C",[30],20.6%
same,"viability, T/C",[31],22%
same,"viability, T/C",[32],20.8%
same,"viability, T/C",[33],23.6%
same,"viability, T/C",[34],20.8%
same,"viability, T/C",[35],20.8%
same,"viability, T/C",[36],17.1%
same,"viability, T/C",[37],21.5%
same,"viability, T/C",[38],19.9%
same,"viability, T/C",[39],18.5%
same,"viability, T/C",[40],21.1%
same,"viability, T/C",[41],20.1%
same,"viability, T/C",[42],16.5%
NC(=O)C(=Cn1cnc(-c2cc(C(F)(F)F)cc(C(F)(F)F)c2)n1)c1cncnc1 + CNC(=O)c1ccc(Nc2nc(OC3CCCC3)c3c(-c4ccc5nc(C)oc5c4)c[nH]c3n2)c(OC)c1,IC50,[1],240 nM
same,IC50,[2],< 9.49 nM
same,IC50,[3],< 9.49 nM
same,IC50,[4],< 9.49 nM
same,IC50,[5],< 9.49 nM
same,IC50,[6],< 9.49 nM
same,"viability, T/C","second compound 0.0316 µM, first compound 0.00949 µM",105%
same,"viability, T/C","second compound 0.0316 µM, first compound 0.03 µM",103%
same,"viability, T/C","second compound 0.0316 µM, first compound 0.0949 µM",124%
same,"viability, T/C","second compound 0.0316 µM, first compound 0.3 µM",35.5%
same,"viability, T/C","second compound 0.0316 µM, first compound 0.949 µM",1.65%
same,"viability, T/C","second compound 0.0316 µM, first compound 3 µM",0.39%
same,"viability, T/C","second compound 0.1 µM, first compound 0.00949 µM",44.5%
same,"viability, T/C","second compound 0.1 µM, first compound 0.03 µM",42.2%
same,"viability, T/C","second compound 0.1 µM, first compound 0.0949 µM",28.9%
same,"viability, T/C","second compound 0.1 µM, first compound 0.3 µM",10.7%
same,"viability, T/C","second compound 0.1 µM, first compound 0.949 µM",1%
same,"viability, T/C","second compound 0.1 µM, first compound 3 µM",0.65%
same,"viability, T/C","second compound 0.316 µM, first compound 0.00949 µM",29.7%
same,"viability, T/C","second compound 0.316 µM, first compound 0.03 µM",29.7%
same,"viability, T/C","second compound 0.316 µM, first compound 0.0949 µM",27.1%
same,"viability, T/C","second compound 0.316 µM, first compound 0.3 µM",8.97%
same,"viability, T/C","second compound 0.316 µM, first compound 0.949 µM",1.36%
same,"viability, T/C","second compound 0.316 µM, first compound 3 µM",1.61%
same,"viability, T/C","second compound 1 µM, first compound 0.00949 µM",21.2%
same,"viability, T/C","second compound 1 µM, first compound 0.03 µM",24%
same,"viability, T/C","second compound 1 µM, first compound 0.0949 µM",19.4%
same,"viability, T/C","second compound 1 µM, first compound 0.3 µM",5.67%
same,"viability, T/C","second compound 1 µM, first compound 0.949 µM",0.48%
same,"viability, T/C","second compound 1 µM, first compound 3 µM",1.21%
same,"viability, T/C","second compound 3.16 µM, first compound 0.00949 µM",16.4%
same,"viability, T/C","second compound 3.16 µM, first compound 0.03 µM",17.2%
same,"viability, T/C","second compound 3.16 µM, first compound 0.0949 µM",13.8%
same,"viability, T/C","second compound 3.16 µM, first compound 0.3 µM",4.75%
same,"viability, T/C","second compound 3.16 µM, first compound 0.949 µM",1.02%
same,"viability, T/C","second compound 3.16 µM, first compound 3 µM",0.26%
same,"viability, T/C","second compound 10 µM, first compound 0.00949 µM",16.3%
same,"viability, T/C","second compound 10 µM, first compound 0.03 µM",16.8%
same,"viability, T/C","second compound 10 µM, first compound 0.0949 µM",11.7%
same,"viability, T/C","second compound 10 µM, first compound 0.3 µM",4.97%
same,"viability, T/C","second compound 10 µM, first compound 0.949 µM",0.49%
same,"viability, T/C","second compound 10 µM, first compound 3 µM",0.34%
C=CC(=O)N1CCN(c2nc(=O)n(-c3c(C)ccnc3C(C)C)c3nc(-c4c(O)cccc4F)c(F)cc23)C(C)C1 (stereo not drawn),"viability, T/C",compound 0.0316 µM,122%
same,"viability, T/C",compound 0.1 µM,82.7%
same,"viability, T/C",compound 0.316 µM,91.2%
same,"viability, T/C",compound 1 µM,97%
same,"viability, T/C",compound 3.16 µM,110%
same,"viability, T/C",compound 10 µM,111%
same,IC50,curve of compound,> 10000 nM
Nc1ccccc1NC(=O)c1ccc(CNC(=O)OCc2cccnc2)cc1 + CNC(=O)c1ccc(Nc2nc(OC3CCCC3)c3c(-c4ccc5nc(C)oc5c4)c[nH]c3n2)c(OC)c1,IC50,[1],2980 nM
same,IC50,[2],44.4 nM
same,IC50,[3],< 31.6 nM
same,IC50,[4],< 31.6 nM
same,IC50,[5],< 31.6 nM
same,IC50,[6],< 31.6 nM
same,"viability, T/C",[7],82%
same,"viability, T/C",[8],109%
same,"viability, T/C",[9],109%
same,"viability, T/C",[10],87.8%
same,"viability, T/C",[11],48.3%
same,"viability, T/C",[12],0.6%
same,"viability, T/C",[13],51%
same,"viability, T/C",[14],47.9%
same,"viability, T/C",[15],35%
same,"viability, T/C",[16],24.9%
same,"viability, T/C",[17],15.6%
same,"viability, T/C",[18],0.18%
same,"viability, T/C",[19],33.1%
same,"viability, T/C",[20],27.7%
same,"viability, T/C",[21],16.4%
same,"viability, T/C",[22],11.1%
same,"viability, T/C",[23],5.55%
same,"viability, T/C",[24],0.32%
same,"viability, T/C",[25],23.7%
same,"viability, T/C",[26],18.4%
same,"viability, T/C",[27],14.7%
same,"viability, T/C",[28],8.67%
same,"viability, T/C",[29],8.05%
same,"viability, T/C",[30],0.14%
same,"viability, T/C",[31],17.5%
same,"viability, T/C",[32],16.4%
same,"viability, T/C",[33],10.7%
same,"viability, T/C",[34],6.76%
same,"viability, T/C",[35],6.55%
same,"viability, T/C",[36],0.19%
same,"viability, T/C",[37],17.6%
same,"viability, T/C",[38],14.9%
same,"viability, T/C",[39],8.73%
same,"viability, T/C",[40],6.93%
same,"viability, T/C",[41],6.45%
same,"viability, T/C",[42],0.27%
